Measured values published in US20060123501A1, “Method for treating inflammatory disorders” (priority 2004, published 2006).

Legend:
[1] = test system: peritoneal-derived macrophages; test: Fas-induced death of peritoneal macrophages with or without LPS pre-treatment (TUNEL); format: cell-based, mouse; settings: LPS 10 μg/ml, 4 h, α-Fas antibody 20 μg/ml
Procedure: Peritoneal-derived macrophages from cIAP2^−/− (lower panels) and cIAP2^+/+ mice (upper panels) were either pre-treated with LPS for 4 h or not pre-treated prior to exposure to α-Fas antibody and then TUNEL stained to assess cell viability (A). Percentages of viable cells (n=5, average of triplicate wells per mouse, P values were <0.01) are shown within each TUNEL stained panel along with the standard deviation. cIAP2^−/−-derived (open shapes) and cIAP2^+/+-derived (solid shapes) T cells were pre-incubated with a range of IL-7 concentrations and then exposed to dexamethasone and T cell survival was monitored over a 12 h period (B) (n=3, average of triplicate wells per mouse, results are mean±s.d., P values at the 12 h point were <0.05). Peritoneal-derived cell numbers are shown for macrophages of cIAP2^−/− mice and littermate control cIAP2^+/+ mice injected i.p. with LPS(C). […]
Confluent primary cultures of peritoneal-derived macrophages were either pre-treated with LPS (10 μg/ml, 4 h) or not pre-treated prior to exposure to α-Fas antibody (20 μg/ml, clone Jo2) and then TUNEL stained (Roche) to assess cell viability. Primary cultures of spleen derived T cells were pre-incubated with a range of IL-7 concentrations (0, 5, and 10 ng/ml) and then exposed to dexamethasone (100 nM) and T cell survival was monitored over a 12 h period.

[2] = test system: splenic B cells; test: Proliferation of splenic B cells cultured with LPS; format: cell-based, mouse; settings: cIAP2−/− splenic B cells; LPS 0.1 to 100 μg/ml
Procedure: Spleen- and peritoneal-derived macrophage cell count numbers are shown (A) for cIAP2^−/−, cIAP2^+/− and cIAP2^+/+ mice (n=10). Both cIAP2^−/− and littermate control-derived macrophages stained for the LPS binding surface receptor CD14 (B). The proliferation of B cells for cIAP2^−/− mice and littermate controls of cIAP2^+/+ after culturing with the indicated range of LPS doses (n=6) (C). Cultured macrophages from cIAP2^−/− or littermate control cIAP2^+/+ mice were exposed to LPS for 10 h and subsequently IL-1β (D) or TNF-α (E) levels were measured by ELISA (n=6). Additionally, macrophages were exposed to the indicated range of LPS doses for 24 h and IL-1β (F) or TNF-α (G) levels were determined (n=6). Results are mean±s.d. in triplicate per mouse, P<0.01
This dysfunction may be correlated to a reduced initial number of macrophages, to a block in the LPS-induced signaling pathway, or to an increased apoptotic susceptibility of the cIAP2^−/− macrophages. […] The cIAP2^−/− mice and wild-type macrophages also stained similarly for the LPS-binding receptor, CD14 (FIG. 4B).

[3] = test system: xiap, ciap1 and ciap2 mRNA; test: iap mRNA levels of LPS-treated peritoneal macrophages (quantitative RT-PCR); format: cell-based, mouse
Procedure: The iap mRNA levels of LPS-treated peritoneal macrophages derived from wild type C57Bl/6 mice relative to untreated controls were assayed. (A) xiap, ciap1, and ciap2 message levels of macrophages exposed to a range of LPS doses relative to untreated controls. (B) ciap2 mRNA message of macrophages exposed to LPS was assayed over 24 h. Results are mean±s.d. (n=5, average of triplicate wells per mouse, P<0.05).
LPS-induced activation of macrophages causes the upregulation of a multitude of genes, including the production/release of inflammatory mediators, the upregulation of cell surface receptors and of cell survival proteins. […] Therefore, the iap mRNA levels of LPS-treated macrophages, derived from the peritoneal cavity, were assayed relative to untreated controls. Peritoneal macrophages were cultured at 10^5 cell/well (96 well, flat bottom plate) and exposed to varying concentrations of LPS for 18 hours. […] In contrast, ciap2 levels increased dramatically, up to 30 fold above untreated controls (P<0.01 for all LPS doses) (FIG. 2A). The innate immune system provides protection within the first minutes to hours after a pathogenic challenge.
mRNA was extracted from mouse embryonic fibroblasts or peritoneal macrophages using Qiagen Rneasy 96 wells extraction kit (Qiagen, Mississauga, ON, Canada) and run on a TaqMan® instrument (Perkin-Elmer, Foster City, Calif.) using specific DNA probes for murine xiap, ciap1 and 2 and the TaqMan® EZ RT-PCR kit (Qiagen, Mississauga, ON, Canada).

[4] = test system: liver-derived macrophages; test: Liver-derived macrophage cell counts in liver sections after i.p. LPS; format: in vivo, mouse
Procedure: Liver tissue derived from cIAP2^−/− (upper panels) and cIAP2^+/+ mice (lower panels) pre-treated with LPS (35 mg/kg) for 2 hours (a) or 6 hours (b). cell counts (n=5, average of 3 sections (average of 5 fields per section) per mouse, P<0.01) are shown within each anti-F4/80 FITC conjugated antibody stained panel along with the standard deviation.
To determine the apoptotic sensitivity of cIAP2^−/− macrophages within an LPS-induced pro-inflammatory environment, the peritoneal macrophage cell numbers before and during an endotoxin-elicited response were assessed by trypan blue exclusion, Diff Quik™ staining kit and flow cytometry (using the macrophage marker PE conjugated α-F4/80 antibody). […] However, total lymphocyte cell count numbers (B and T cells) were comparatively unaffected in both animal types (FIG. 5D). In addition, at 5 hours post LPS injection both the peritoneal and splenic macrophages from cIAP2^−/− mice stained ˜100% positive for Annexin V (Table 5). Therefore, peritoneal and splenic macrophages from cIAP2^−/− mice undergoing LPS-induced endotoxic shock were highly sensitive to apoptotic stimuli compared to control littermates, in vivo. Liver-derived macrophages are key mediators of LPS-induced endotoxic shock (7, 12). Therefore, to further investigate the survival status of macrophages within LPS treated cIAP2^−/− mice we examined cell count levels of liver-derived macrophages within liver sections. Macrophage cell count numbers within both cIAP2^−/− and control mice were similar at 2 hours post-IP LPS treatment (FIG. 6A), 235+/−35 and 271+/−29, respectively (n=5, average of 3 sections (average of 5 fields per section) per mouse, P<0.01). However, at the 6 hour time point (FIG. 6B), there was a precipitous drop of liver-derived macrophages of the cIAP2^−/− mice, 21+/−12 versus that of the littermates, 148+/−19 (n=5, average of 3 sections (average of 5 fields per section) per mouse, P<0.01). Therefore, like peritoneal and splenic macrophages, the liver-derived macrophages from cIAP2^−/− are highly sensitive to LPS in vivo.

[5] = wild type peritoneal macrophages, LPS 0.1 ng/ml to 10 mg/ml, 18 hours

lipopolysaccharide [LPS]
Resistance to Fas-mediated killing with or without pre-exposure to LPS ([1]; cIAP2−/− macrophages): displayed no difference | Resistance to Fas-induced death after LPS pre-treatment ([1]; wild-type macrophages): showed the expected resistance to Fas-induced death | B cell proliferation in response to LPS [2]: proliferated normally | ciap2 mRNA upregulation above untreated controls ([3]; 100 ng/1 ml LPS, within 1 hour, maintained for 24 hours): > 20 fold | increase of ciap2 message above untreated controls ([3]; peritoneal-derived macrophages, in less than one hour): 2o | Xiap and ciap1 message levels [3, 5]: remained relatively unchanged | ciap2 mRNA level increase above untreated controls [3, 5]: up to 30 fold | Liver macrophage cell count ([4]; cIAP2−/− mice, 2 hours post-IP LPS (35 mg/kg)): 235+/−35 | Liver macrophage cell count ([4]; cIAP2−/− mice, 6 hour time point post LPS (35 mg/kg)): 21+/−12 | Liver macrophage cell count ([4]; control mice, 2 hours post-IP LPS (35 mg/kg)): 271+/−29 | Liver macrophage cell count ([4]; littermates, 6 hour time point post LPS (35 mg/kg)): 148+/−19
